Test system: patients with temporomandibular pain
Assay: Global pain reduction in TMJ patients, visual analogic scale (VAS)
Type: in vivo
Details: n=3 per group, treated 3 times over 24 h, VAS 8 hours after the last administration
Protocol: In order to test the role of vitamin C in the formulation 7 groups of patients (n=3) with temporomandibular pain were administered the following combinations:
Patients were treated 3 times over 24 h, and were asked to evaluate their pain (localized and general) 8 hours after the last administration using a visual analogic scale (VAS) from 1 to 10, being 10 the most positive situation. The results of the two assessments were summed up to obtain the global pain score.

## O=C1O[C@H]([C@@H](O)CO)C(O)=C1O [Group 7, Vitamin C]
  effect on reduction of (global) pain, conclusions in words: worst values in all parameters
Listed as Vit C
  effect on reduction of (global) pain, conclusions in words: no effect

From patent US20170319519A1, “COMBINATION FOR THE TREATMENT OF CONDITIONS INVOLVING MUSCULAR PAIN” (Spherium Biomed S.L., priority 2014, published 2017)
